{"source": "patent US9107852B2", "about": "“Uses of agonists of delta opioid receptor in cosmetic and dermocosmetic field” (Induchem Holding AG, priority 2012, dated 2015)", "key": {"[1]": {"test_system": "human skin explants", "assay": "Pro-pigmentation on human skin explants", "type": "cell-based", "details": "within 6 days, 0.3 and 3 PPM", "description": "This study aims to explore the pro pigmenting activity of an ingredient (peptide YPLDLF, SEQ ID No 1) on human skin explants maintained in survival.\nThe activity of the product was evaluated by: • histological expertise of general morphology of the skin after Masson trichrome staining, • a visualization of melanin by a silver impregnation. • Immunostaining of Melan-A\nSkin explants with a diameter of 10 mm were prepared from plastic surgery skin sample from a person. The explants were placed in survival in a specific growth medium at 37° C. in a humid atmosphere enriched with 5% CO2.\nThe peptide solutions (at 0.3 PPM or 3 PPM) were applied topically for 2 hours every day using a filter paper discs presoaked in 30 μl of each solution.\nAt D0, a T0 lot of the explants were removed and cut in half. One half was fixed in buffered formalin and the other half was frozen at −80° C. […]\nThe melanin was visualized by silver impregnation according to the technique of Masson Fontana variant. Labeled melanin has been evaluated by microscopic examination.\nThe expression of melanin in the basal layers, was quantified by image analysis using the software Cell-D.\nThe cell nuclei were colored with a propidium iodide. Labeled Melan-A has been evaluated by microscopic examination and counting of melanocytes Melan-A positive and the results expressed per centimeter of epidermis."}, "[2]": {"test_system": "reconstructed human epidermis (RHE)", "assay": "Protein expression (in situ immunolabeling) in RHE stimulated with cytokines", "type": "cell-based", "details": "3 PPM peptide, % of level in non treated RHE", "description": "In the present study, the effects of a peptide on the expression of 7 proteins were assessed on a reconstructed human epidermis (RHE) model stimulated or not with a mix of cytokines (IL-17+OSM+TNF-α).\nMore precisely, effects of compounds were evaluated on the protein expression of markers involved in: • tight junctions (Occludin), • […] (Corneosdesmosin) • keratinocyte differentiation (keratin 10, involucrin, calmodulin-like5), • and lipid synthesis (Acyl-CoA synthetase and sulfotransferase 2B).\nReconstructed human epidermis (RHE) of 11 days old were prepared according to a derived method described by Poumay et al. (2004). These RHE were cultivated at 37° C. and 5% of CO2 in a specific maintenance medium.\nThe RHE were treated with assay medium containing or not (control) the test compounds or the JAK inhibitor I at 10 μM and incubated for 24 hours. After pre-incubation, assay medium and treatments were renewed and epidermises were stimulated with a cytokine mix (OSM+IL-17+TNF-α*) at 3 ng/ml and incubated for additional 48 hours. All experimental conditions were performed in n=3. *Oncostatin M (OSM)+Interleukin 17 (IL-17)+ Tumor necrosis factor alpha (TNF-α)\nAt the end of incubation, the supernatants were collected and the RHE were washed in phosphate buffered saline solution (PBS) for in situ immunolabeling.\nAfter incubation, the RHE were snap-frozen in liquid isopentane/N2 and stored at −80° C. The transversal sections were carried out using a microtome (5 μm thickness, one slide per RHE, several sections per slide).\nThe sections were fixed with an acetone/methanol mix and dried. After PBS-milk 5% saturation, the sections were incubated with the specific primary antibody solutions. […] The sections were washed and then observed under epifluorescence microscopy.\nAfter incubation, RHE were rinsed and fixed with formaldehyde solution. Fixed tissues were dehydrated in multiple baths with increasing concentration of ethanol and then embedded in paraffin. The transversal sections were carried out using a microtome (5 μm thickness) and stored at room temperature.\nThe sections were deparaffinized then the antigenic sites were retrieved. The sections were washed and incubated with hydrogen peroxide. The sections, once washed, were incubated with the primary antibody (anti-Calmodulin-like 5 or anti-SULT2B1). […] After peroxidase-conjugated streptavidine and peroxidase substrate addition, nuclei were counter-stained with a solution of haematoxylin. The sections were washed, mounted in aqueous medium and observed under transmitted-light microscopy.\nSections were observed using a NIKON E400 microscope. Images were captured with a NIKON DS-Ri1 and processed with NIS-Elements 3.10 software (3 pictures per replicate). The image analysis was performed by measuring the fluorescence intensity using Image J software.\nResults were expressed in % of the level of expression of each protein maker in non treated RHE."}}, "note": "Ends that are not written are not given here."}
{"substance": "YPLDLF [YPLDLF]", "values": [{"measurement": "production of pigment (melanin) in human skin", "setting": "[1]", "result": "activate in a dose dependent manner"}, {"measurement": "Acyl-CoA synthetase protein expression level in RHE", "setting": "[2]", "result": 65, "unit": "%"}, {"measurement": "Calmodulin like 5 protein expression level in RHE", "setting": "[2]", "result": 100, "unit": "%"}, {"measurement": "Corneodesmosin protein expression level in RHE", "setting": "[2]", "result": 84, "unit": "%"}, {"measurement": "Involucrin protein expression level in RHE", "setting": "[2]", "result": 99, "unit": "%"}, {"measurement": "Keratin 10 protein expression level in RHE", "setting": "[2]", "result": 104, "unit": "%"}, {"measurement": "Occludin protein expression level in RHE", "setting": "[2]", "result": 97, "unit": "%"}, {"measurement": "Sulfotransferase 2B protein expression level in RHE", "setting": "[2]", "result": 100, "unit": "%"}]}
